Experimental data as given in patent US5223488A, “Oxidized-type glutathione alkyl ester” (Senju Pharmaceutical Company, Ltd., priority 1990, dated 1993).
Where two headings read alike, the source gives them in different places.

Tested on: acetaminophen-induced liver disorder
Test: Suppressive effect on acetaminophen-induced liver disorder in the rat (s-GOT, s-GPT)
Format: in vivo
Details: for inhibition at 102 mg/kg: Rattus norvegicus; for inhibition at 102 mg/kg / inhibition rate of s-GOT / inhibition rate of s-GPT: versus 5% gum arabic control; for s-GOT / s-GPT: male Wistar rats, blood 24 h later, mean ± S.E. (n=4-8)
Experimental: Male Wistar rats with a body weight of about 180 g were fasted for 24 hours and orally administered, through a cannula for oral administration, 87-349 mg of oxidized-type glutathione isopropyl ester (hereinafter also referred to as "GSSG isopropyl"), which is one of the compounds of the present invention, 102 mg of reduced-type glutathione isopropyl ester 1/2 H2 SO4.1/2H2 O (87 mg as reduced type glutathione isopropyl ester (hereinafter also referred to as "GSH isopropyl")) or 5% gum arabic solution as a control, respectively. 1 hour later, 400 mg/kg of acetaminophen, a compound which may induce disorders in the liver, was intra peritoneally administered. 24 hours later, the rats were anesthetized with pentobarbital and the blood was collected from the abdominal aorta, and s-GOT and s-GPT were measured to compare the hepatic disorder suppressing effect of GSSG isopropyl with that of GSH isopropyl.

[1] = 102 mg/kg [0.25 mmol/kg] oral 1 h before acetaminophen 400 mg/kg i.p.
[2] = 87 mg/kg [0.125 mmol/kg] oral 1 h before acetaminophen 400 mg/kg i.p.
[3] = 174 mg/kg [0.25 mmol/kg] oral 1 h before acetaminophen 400 mg/kg i.p.
[4] = 349 mg/kg [0.5 mmol/kg] oral 1 h before acetaminophen 400 mg/kg i.p.

Compound	elevation of s-GOT and s-GPT (102 mg/kg oral, acetaminophen-treated rats)	inhibition at 102 mg/kg (102 mg/kg oral, read-out: inhibition rate of s-GOT)	inhibition at 102 mg/kg (102 mg/kg oral, read-out: inhibition rate of s-GPT)	s-GOT [1]	s-GPT [1]	hepatic disorder suppressing effect compared with 102 mg/kg of GSH isopropyl sulfate (87 mg/kg oral, acetaminophen-treated rats)	inhibition rate of s-GOT (87 mg/kg oral)	inhibition rate of s-GPT (87 mg/kg oral)	inhibition rate of s-GOT (174 mg/kg oral)	inhibition rate of s-GPT (174 mg/kg oral)	inhibition rate of s-GOT (349 mg/kg oral)	inhibition rate of s-GPT (349 mg/kg oral)	elevation of s-GOT and s-GPT (87-349 mg/kg oral, acetaminophen-treated rats)	s-GOT [2]	s-GPT [2]	s-GOT [3]	s-GPT [3]	s-GOT [4]	s-GPT [4]
CC(C)OC(=O)CNC(=O)[C@H](CS)NC(=O)CC[C@H](N)C(=O)O.O=S(=O)(O)O [GSH isopropyl sulfate, γ-L-glutamyl-L-cysteinylglycine isopropyl ester sulfate, reference compound]	significantly suppresses	94.5%	94.4%	475 ± 156 IU/1	253 ± 97 IU/1	–	–	–	–	–	–	–	–	–	–	–	–	–	–
γ-L-GLUTAMYL-L-CYSTEI[…] ESTER DISULFIDE [GSSG isopropyl]	–	–	–	–	–	almost equivalent	95.0	94.9	95.9	96.6	98.6	99.1	significantly suppressed dose-dependently	430 ± 236 IU/1	231 ± 152 IU/1	352 ± 104 IU/1	154 ± 46 IU/1	119 ± 11 IU/1	39 ± 3 IU/1
